Reference: patent US8431593B2, “Heteroaryl amide derivatives” (H. Lundbeck A/S, priority 2006, dated 2013)

Molecular target: T1, P2X7 receptor (Homo sapiens, UniProt Q99572)
T1 construct: host or cells: SH-SY5Y
T1 sequence (Q99572 1-595): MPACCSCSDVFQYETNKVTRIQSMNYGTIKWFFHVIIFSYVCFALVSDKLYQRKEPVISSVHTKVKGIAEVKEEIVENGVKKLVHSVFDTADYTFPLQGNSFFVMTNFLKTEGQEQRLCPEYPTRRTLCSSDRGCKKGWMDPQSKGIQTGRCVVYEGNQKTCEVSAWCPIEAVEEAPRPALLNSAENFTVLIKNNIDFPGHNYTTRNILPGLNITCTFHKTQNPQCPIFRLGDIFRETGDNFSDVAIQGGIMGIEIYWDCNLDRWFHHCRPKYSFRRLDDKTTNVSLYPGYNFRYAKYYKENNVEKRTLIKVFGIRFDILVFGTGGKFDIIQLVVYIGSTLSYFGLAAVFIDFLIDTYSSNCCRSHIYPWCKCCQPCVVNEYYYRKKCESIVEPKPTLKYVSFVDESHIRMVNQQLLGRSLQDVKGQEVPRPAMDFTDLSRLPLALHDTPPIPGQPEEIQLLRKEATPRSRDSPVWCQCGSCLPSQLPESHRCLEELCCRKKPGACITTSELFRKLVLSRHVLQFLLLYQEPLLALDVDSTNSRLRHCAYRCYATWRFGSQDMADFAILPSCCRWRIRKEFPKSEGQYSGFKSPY
Test: P2X7 calcium mobilization assay, high throughput, antagonist activity (Example 4A)
Format: cell-based
Conditions: 50% decrease in the fluorescence response of cells exposed to 80 μM 2′(3′)-O-(4-benzoyl-benzoyl)adenosine 5′-triphosphate; Example 4A; read-out: IC50
How it was run: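 Antagonism was measured as calcium fluorescence (FLIPR Tetra) in cells seeded one day earlier at 100,000/well, loaded with dye for 1 h and exposed to compound for 1 h at room temperature before agonist. Peak RFU, minus the no-agonist background, was referenced to the mean of the agonist wells.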

IC50 [µM] | Structure (SMILES)
< 2 | O=C(CC12CC3CC(CC(C3)C1)C2)Nc1cccc2nc(C(=O)N3CCCC(O)C3)cn12 (stereo not shown) [Compound 418, 2-adamantan-1-yl-N-{2-[(3-hydroxypiperidin-1-yl)carbonyl]imidazo [1,2-a]pyridin-5-yl}acetamide]
< 2 | O=C(CC12CC3CC(CC(C3)C1)C2)Nc1cccc2nc(C(=O)N3CC[C@H](O)C3)cn12 [Compound 419, 2-adamantan-1-yl-N-(2-{[(3S)-3-hydroxypyrrolidin-1-yl]carbonyl}imidazo [1,2-a]pyridin-5-yl)acetamide]

Same assay, conditions: fluorescence response of cells exposed to 80 μM 2′(3′)-O-(4-benzoyl-benzoyl)adenosine 5′-triphosphate; Example 4A; read-out: IC50

IC50 [µM] | Structure (SMILES)
< 2 | CCOC(=O)CN(CC)C(=O)c1cn2c(NC(=O)CC34CC5CC(CC(C5)C3)C4)cccc2n1 [Compound 375, ethyl N-({5-[(adamantan-1-ylacetyl)amino]imidazo [1,2-a]pyridin-2-yl}carbonyl)-N-ethylglycinate]
< 2 | COC(=O)C1CCCN1C(=O)c1cn2c(NC(=O)CC34CC5CC(CC(C5)C3)C4)cccc2n1 (stereo not shown) [Compound 376, methyl 1-({5-[(adamantan-1-ylacetyl)amino]imidazo [1,2-a]pyridin-2-yl}carbonyl)prolinate]
< 2 | COC(=O)CN(C)C(=O)c1cn2c(NC(=O)CC34CC5CC(CC(C5)C3)C4)cccc2n1 [Compound 377, methyl N-({5-[(adamantan-1-ylacetyl)amino]imidazo[1,2-a]pyridin-2-yl}carbonyl)-N-methylglycinate]
< 2 | COCCN(C(=O)c1cn2c(NC(=O)CC34CC5CC(CC(C5)C3)C4)cccc2n1)C(C)C [Compound 379, 5-[(adamantan-1-ylacetyl)amino]-N-isopropyl-N-(2-methoxyethyl)imidazo [1,2-a]pyridine-2-carboxamide]
< 2 | O=C1CCN(C(=O)c2cn3c(NC(=O)CC45CC6CC(CC(C6)C4)C5)cccc3n2)CCN1 [Compound 380, 2-adamantan-1-yl-N-{2-[(5-oxo-1,4-diazepan-1-yl)carbonl]imidazo [1,2-a]pyridin-5-yl}acetamide]
< 2 | O=C(CC12CC3CC(CC(C3)C1)C2)Nc1cccc2nc(C(=O)N3CCC(C(F)(F)F)CC3)cn12 [Compound 382, 2-adamantan-1-yl-N-(2-{[4-(trifluoromethyl)piperidin-1-yl]carbonyl}imidazo[1,2-a]pyridin-5-yl)acetamide]
< 2 | COC1CCN(C(=O)c2cn3c(NC(=O)CC45CC6CC(CC(C6)C4)C5)cccc3n2)CC1 [Compound 385, 2-adamantan-1-yl-N-{2-[(4-methoxypiperidin-1-yl)carbonyl]imidazo[1,2-a]pyridin-5-yl}acetamide]
< 2 | O=C(CC12CC3CC(CC(C3)C1)C2)Nc1cccc2nc(C(=O)N3CCC(F)CC3)cn12 [Compound 387, 2-adamantan-1-yl-N-{2-[(4-fluoropiperidin-1-yl)carbonyl]imidazo[1,2-a]pyridin-5-yl}acetamide]
< 2 | O=C(CC12CC3CC(CC(C3)C1)C2)Nc1cccc2nc(C(=O)N3CCC(F)(F)CC3)cn12 [Compound 388, 2-adamantan-l-yl-N-(2-[(4,4-difluoropiperidin-1-yl)carbonyl]imidazo [1,2-a]pyridin-5-yl}acetamide]
< 2 | COCCC1CCN(C(=O)c2cn3c(NC(=O)CC45CC6CC(CC(C6)C4)C5)cccc3n2)CC1 [Compound 389, 2-adamantan-1-yl-N-(2-{[4-(2-methoxyethyl)piperidin-1-yl]carbonyl}imidazo[1,2-a]pyridin-5-yl)acetamide]
< 2 | CN(C(=O)c1cn2c(NC(=O)CC34CC5CC(CC(C5)C3)C4)cccc2n1)C1CCOC1 (stereo not shown) [Compound 393, 5-[(adamantan-1-ylacetyl)amino]-N-methyl-N-(tetrahydrofuran-3-yl)imidazo[1,2-a]pyridine-2-carboxamide]
< 2 | COCC1CCN(C(=O)c2cn3c(NC(=O)CC45CC6CC(CC(C6)C4)C5)cccc3n2)CC1 [Compound 396, 2-adamantan-1-yl-N-(2-{[4-(methoxymethyl)piperidin-1-yl]carbonyl}imidazo[1,2-a]pyridin-5-yl)acetamide]
< 2 | CS(=O)(=O)NC1CCN(C(=O)c2cn3c(NC(=O)CC45CC6CC(CC(C6)C4)C5)cccc3n2)CC1 [Compound 398, 2-adamantan-1-yl-N-[2-({4-[(methylsulfonyl)amino]piperidin-1-yl}carbonyl)imidazo [1,2-a]pyridin-5-yl]acetamide]
< 2 | CS(=O)(=O)N1CCN(C(=O)c2cn3c(NC(=O)CC45CC6CC(CC(C6)C4)C5)cccc3n2)CC1 [Compound 399, 2-adamantan-1-yl-N-(2-{[4-(methylsulfonyl)piperazin-1-yl]carbonyl}imidazo [1,2-a]pyridin-5-yl)acetamide]
< 2 | CN(C)[S@SP3](=O)(=O)N1CCN(C(=O)c2cn3c(NC(=O)CC45CC6CC(CC(C6)C4)C5)cccc3n2)CC1 [Compound 400, 2-adamantan-1-yl-N-(2-{[4-(dimethylsulfamoyl)piperazin-1-yl]carbonyl}imidazo [1,2-a]pyridin-5-yl)acetamide]
< 2 | CC(C)C(=O)NC1CCN(C(=O)c2cn3c(NC(=O)CC45CC6CC(CC(C6)C4)C5)cccc3n2)CC1 [Compound 402, N-[1-({5-[(adamantan-1-ylacetyl)amino]imidazo[1,2-a]pyridin-2-yl}carbonyl)piperidin-4-yl]-2-methylpropanamide]
< 2 | CN(CCNS(C)(=O)=O)C(=O)c1cn2c(NC(=O)CC34CC5CC(CC(C5)C3)C4)cccc2n1 [Compound 404, 5-[(adamantan-1-ylacetyl)amino]-N-methyl-N-{2-[(methylsulfonyl)amino]ethyl} imidazo[1,2-a] pyridine-2-carboxamide]
< 2 | CN(CCO)C(=O)c1cn2c(NC(=O)CC34CC5CC(CC(C5)C3)C4)cccc2n1 [Compound 405, 5-[(adamantan-1-ylacetyl)amino]-N-(2-hydroxyethyl)-N-methylimidazo[1,2-a]pyridine-2-carboxamide]
< 2 | O=C(CC12CC3CC(CC(C3)C1)C2)Nc1cccc2nc(C(=O)N(CCO)C3CCCCC3)cn12 [Compound 407, 5-[(adamantan-1-ylacetyl)amino]-N-cyclohexyl-N-(2-hydroxyethyl)imidazo [1,2-a]pyridine-2-carboxamide]
< 2 | CC(=O)NC1CCN(C(=O)c2cn3c(NC(=O)CC45CC6CC(CC(C6)C4)C5)cccc3n2)CC1 [Compound 408, N-{2-[(4-acetamidopiperidin-1-yl)carbonyl]imidazo[1,2-a]pyridin-5-yl}-2-adamantan-1-ylacetamide]
< 2 | CCCC(=O)NC1CCN(C(=O)c2cn3c(NC(=O)CC45CC6CC(CC(C6)C4)C5)cccc3n2)CC1 [Compound 409, N-[1-({5-[(adamantan-1-ylacetyl)amino]imidazo[1,2-a]pyridin-2-yl}carbonyl)piperidin-4-yl]butanamide]
< 2 | CCCCCN(CCO)C(=O)c1cn2c(NC(=O)CC34CC5CC(CC(C5)C3)C4)cccc2n1 [Compound 410, 5-[(adamantan-1-ylacetyl)amino]-N-(2-hydroxyethyl)-N-pentylimidazo[1,2-a]pyridine-2-carboxamide]
< 2 | CC(C)(C)NCCOC(=O)c1cn2c(NC(=O)CC34CC5CC(CC(C5)C3)C4)cccc2n1 [Compound 411, 2-(tert-butylamino)ethyl 5-[(adamantan-1-ylacetyl)amino] imidazo [1,2-a]pyridine-2-carboxylate]
< 2 | CCCCN(CCO)C(=O)c1cn2c(NC(=O)CC34CC5CC(CC(C5)C3)C4)cccc2n1 [Compound 412, 5-[(adamantan-l-ylacetyl)amino]-N-butyl-N-(2-hydroxyethyl)imidazo [1,2-a]pyridine-2-carboxamide]
< 2 | CC(C)N(CCO)C(=O)c1cn2c(NC(=O)CC34CC5CC(CC(C5)C3)C4)cccc2n1 [Compound 413, 5-[(adamantan-1-ylacetyl)amino]-N-(2-hydroxyethyl)-N-isopropylimidazo[1,2-a]pyridine-2-carboxamide]
< 2 | CCN(CCO)C(=O)c1cn2c(NC(=O)CC34CC5CC(CC(C5)C3)C4)cccc2n1 [Compound 414, 5-[(adamantan-1-ylacetyl)amino]-N-ethyl-N-(2-hydroxyethyl)imidazo [1,2-a]pyridine-2-carboxamide]
< 2 | O=C(CC12CC3CC(CC(C3)C1)C2)Nc1cccc2nc(C(=O)N3CCCCC3CO)cn12 (stereo not shown) [Compound 415, 2-adamantan-1-yl-N-(2-{[2-(hydroxymethyl)piperidin-1-yl]carbonyl}imidazo[1,2-a]pyridin-5-yl)acetamide]
< 2 | CC(C)N(CCCO)C(=O)c1cn2c(NC(=O)CC34CC5CC(CC(C5)C3)C4)cccc2n1 [Compound 416, 5-[(adamantan-1-ylacetyl)amino]-N-(3-hydroxypropyl)-N-isopropylimidazo[1,2-a]pyridine-2-carboxamide]
< 2 | CCN(CCCO)C(=O)c1cn2c(NC(=O)CC34CC5CC(CC(C5)C3)C4)cccc2n1 [Compound 417, 5-[(adamantan-1-ylacetyl)amino]-N-ethyl-N-(3-hydroxypropyl) imidazo [1,2-a]pyridine-2-carboxamide]
